Data on two molecules can be found in patent US10178875B2, “Methods of modifying or imparting taste using organic compounds” (Givaudan, S.A., priority 2013, dated 2019).

What all share (format): in vivo
In one assay the test system is panel of trained tasters. Description: Taste evaluation in water. How it is done:
A one percent cut of each compound of Examples 1-13 was prepared first. The hydrochloride salts were cut directly into water, while the free base examples were cut into ethanol. Next, 100 ml of a 1 ppm, 10 ppm and 20 ppm solution were prepared. The 1 ppm standards were prepared by addition of 0.0126 ml (cut in ethanol) or 0.01 ml (cut in water) to an amber bottle followed by dilution to 100 g total sample weight using water. The 10 and 20 ppm solutions were prepared similarly, but using 0.126 ml ethanol/0.1 ml water or 0.252 ml ethanol/0.2 ml water of the 1% cuts respectively. Next, the samples were evaluated by a panel of trained tasters.

For assay [1], the system named is bench-top tasting panel. Description: Umami evaluation in chicken broth. The note with it: Example 1 0.0002% by weight; for umami strength ranking: MSG 0.1%, 11 panelists. As to the method: Umami evaluations were done in dry noodle seasoning, chicken broth, retorted chicken broth, cheese sauce and salted potato chip applications. Each application was prepared using MSG, the experimental umami tastant and a blank which contained neither MSG nor the experimental umami tastant. Next, using a bench-top tasting panel (consisting of 7 to 14 panelists), panelists were asked to record the sensory attribute differences between the control (blank), the MSG application and the application containing the experimental umami tastant. These sensory attributes include umami, saltiness, bitterness, off-notes, mouth feel attribute, lingering attribute and flavor profile differences. […] Turmeric was plated on salt and chicken fat and blended well. Next, the remaining ingredients were added and mixed until well blended. A concentration of 2.5% of the resulting mixture in hot water (82° C. (180° F.)) generated the noodle seasoning broth.

Assay [2] concerns bench-top tasting panel. Description: Umami evaluation on salted potato chips (Example 19). As to conditions: 1% salted potato chips; for umami strength ranking: 14 panelists. As to the method: (§1) Umami evaluations were done in dry noodle seasoning, chicken broth, retorted chicken broth, cheese sauce and salted potato chip applications. Each application was prepared using MSG, the experimental umami tastant and a blank which contained neither MSG nor the experimental umami tastant. Next, using a bench-top tasting panel (consisting of 7 to 14 panelists), panelists were asked to record the sensory attribute differences between the control (blank), the MSG application and the application containing the experimental umami tastant. These sensory attributes include umami, saltiness, bitterness, off-notes, mouth feel attribute, lingering attribute and flavor profile differences.
One percent salt was added to a standard unsalted potato chip.

Assay [3] deals with bench-top tasting panel. Description: Umami evaluation in cheese sauce. The note with it: Example 1 0.00025% by weight; for umami strength ranking: MSG 0.1%, 14 panelists. How it is done:
Umami evaluations were done in dry noodle seasoning, chicken broth, retorted chicken broth, cheese sauce and salted potato chip applications. Each application was prepared using MSG, the experimental umami tastant and a blank which contained neither MSG nor the experimental umami tastant. Next, using a bench-top tasting panel (consisting of 7 to 14 panelists), panelists were asked to record the sensory attribute differences between the control (blank), the MSG application and the application containing the experimental umami tastant. These sensory attributes include umami, saltiness, bitterness, off-notes, mouth feel attribute, lingering attribute and flavor profile differences. […] Annatto was plated on a mixture of salt, citric acid and lactic acid and blended well. Next, the remaining ingredients were added and mixed until well blended.

In assay [4] the test system is bench-top tasting panel. Description: Umami evaluation in noodle seasoning broth. The note with it: Example 1 0.0001% by weight; for umami strength ranking: MSG 0.1%, 11 panelists. As to the method: Umami evaluations were done in dry noodle seasoning, chicken broth, retorted chicken broth, cheese sauce and salted potato chip applications. Each application was prepared using MSG, the experimental umami tastant and a blank which contained neither MSG nor the experimental umami tastant. Next, using a bench-top tasting panel (consisting of 7 to 14 panelists), panelists were asked to record the sensory attribute differences between the control (blank), the MSG application and the application containing the experimental umami tastant. These sensory attributes include umami, saltiness, bitterness, off-notes, mouth feel attribute, lingering attribute and flavor profile differences. [table] Turmeric was plated on salt and palm fat and blended well. Next, the remaining ingredients were added and mixed until well blended. A concentration of 1.5% of the resulting mixture in hot water generated the noodle seasoning broth. The following three samples were tasted and compared. [table]

In assay [5] the test system is bench-top tasting panel. As to the kind of experiment: Umami evaluation in retorted chicken broth (Example 17). As to conditions: Example 1 0.0002% by weight. As to the method: Umami evaluations were done in dry noodle seasoning, chicken broth, retorted chicken broth, cheese sauce and salted potato chip applications. Each application was prepared using MSG, the experimental umami tastant and a blank which contained neither MSG nor the experimental umami tastant. Next, using a bench-top tasting panel (consisting of 7 to 14 panelists), panelists were asked to record the sensory attribute differences between the control (blank), the MSG application and the application containing the experimental umami tastant. These sensory attributes include umami, saltiness, bitterness, off-notes, mouth feel attribute, lingering attribute and flavor profile differences. The chicken broth generated in Example 16 was transferred to a can and sealed. Prior to sealing one batch was treated with the compound of Example 1 (0.0002% by weight) and the other batch was canned without the ingredient generating a blank control sample. After sealing the cans, they were heated to 121° C. (250° F.) (under pressure) for 25 minutes, cooled to room temperature and then stored in the refrigerator for two weeks. Prior to tasting, the cans were opened and reheated to 65.5° C. (150° F.).

The test system of assay [6] is bench-top tasting panel. As to the kind of experiment: Umami evaluation on salted potato chips (Example 22). As to conditions: 1% salted potato chips; MSG 0.2%, Example 3 10 ppm, Example 13 10 ppm, Example 10 6 ppm, Example 9 10 ppm; 9 panelists. As to the method:
as §1
The potato chips were prepared as previously described in example 19 and spiked with compounds from Examples 3, 9, 10 and 13 as described below.

For assay [7], the system named is bench-top tasting panel. As to the kind of experiment: Bain marie (hot water bath) test with chicken broth. As to conditions: hot water bath 150° F. for 4 hours, MSG 0.20%, Example 3 3 ppm, Example 13 2 ppm (table), Example 10 3 ppm, Example 9 2 ppm, 7 panelists. As to the method: as §1
Chicken broth was prepared as previously described in example 15. Compounds from Examples 3, 9, 10 and 13 were added to the chicken broth in the concentrations described below and placed in a hot water bath (150° F.) for 4 hours prior to taste evaluation.

Assay [8] has as its system bench-top tasting panel. Description: Umami evaluation in retorted chicken broth (Example 20). The note with it: MSG 0.20%, Example 3 4 ppm, Example 13 3 ppm, Example 10 4 ppm, Example 9 3 ppm, 9 panelists. How it is done: as §1
The procedure for the preparation of the retorted chicken broth is the same as in example 16. Compounds from Examples 3, 9, 10 and 13 were spiked individually into the chicken broth generating six samples, as described below.

The mark [9] stands for this setting: MSG 0.2%, Example 1 3 ppm (0.0003% by weight).

With `c1ccc(SCCc2ccccn2)cc1` [Example 1, 2-(2-(PHENYLTHIO)ETHYL)PYRIDINE], the aroma entry in the assay on panel of trained tasters (1 ppm in water) is listed as “green”; in the assay on panel of trained tasters (10 ppm in water), “green”; in the assay with panel of trained tasters (20 ppm in water), “Green, tomato, bell”. In addition, the taste result with panel of trained tasters (1 ppm in water) was “weak to moderate umami”; in the assay on panel of trained tasters (10 ppm in water) it was “moderate umami, very weak: bitter, very weak”; in the assay with panel of trained tasters (20 ppm in water) it was “strong umami, very weak bitter, weak metallic”. Besides, the “attribute noted by some panelists” value with bench-top tasting panel [1] was “green pepper/chili off-note attribute”; in the assay with bench-top tasting panel [2] (Example 1 containing samples (1 ppm and 3 ppm)) it was “peppery attribute”; with bench-top tasting panel [3], “green pepper attribute”; in the assay on bench-top tasting panel [4], “green pepper attribute”. Further, the “Number of panelists who noted green pepper offnote” value in the assay with bench-top tasting panel [1] (of 11 panelists) came out at 3; in the assay on bench-top tasting panel [2] (Example 1 samples, of 14 panelists), 2; with bench-top tasting panel [3] (of 14 panelists), 4; in the assay with bench-top tasting panel [4] (of 11 panelists), 2; in the assay on bench-top tasting panel [5] (retorted chicken broth, of 10 panelists), 4. In addition, the umami strength ranking result in the assay on bench-top tasting panel [1] was “MSG>Example 1>Blank Chicken Broth”; in the assay on bench-top tasting panel [2] (Example 1 1 ppm (0.0001% by weight)), “MSG>3 ppm Example 1>1 ppm Example 1>Blank Salted Chips”; in the assay on bench-top tasting panel [2] (setting [9]), “MSG>3 ppm Example 1>1 ppm Example 1>Blank Salted Chips”; in the assay on bench-top tasting panel [3], “MSG>Example 1>Blank Cheese Sauce”; with bench-top tasting panel [4], “MSG>Example 1>Blank Noodle Seasoning”. The umami versus control result with bench-top tasting panel [5] (retorted chicken broth (121° C., 25 minutes, stored two weeks), 10 panelists) is reported as “more umami than the control”. The off-notes result in the assay with bench-top tasting panel [5] (retorted chicken broth) is listed as “pepper off-notes”.
Turning to `N[C@@H](CCC(=O)O)C(=O)[O-].[Na+]` [MSG, monosodium glutamate, reference compound], the umami strength ranking with bench-top tasting panel [6] is on record as 10 ppm Example 3>10 ppm Example 9>MSG>10 ppm Example 13>blank>6 ppm Example 10; with bench-top tasting panel [1], “MSG>Example 1>Blank Chicken Broth”; with bench-top tasting panel [2] (setting [9]) it was “MSG>3 ppm Example 1>1 ppm Example 1>Blank Salted Chips”; with bench-top tasting panel [3], “MSG>Example 1>Blank Cheese Sauce”; in the assay on bench-top tasting panel [7], “MSG>2 ppm example 9>3 ppm Example 10=4 ppm Example 13>Blank chicken broth>3 ppm Example 3”; in the assay with bench-top tasting panel [4] it was “MSG>Example 1>Blank Noodle Seasoning”. Besides, in the assay with bench-top tasting panel [8], the umami strength ranking entry is given as “MSG>3 ppm example 9>3 ppm Example 13>4 ppm Example 3>Blank retorted chicken broth>4 ppm Example 10”.
